Consider three molecules from patent publication US6914045B2, “Glycopeptide antibiotics” (Wyeth Holdings Corporation, priority 2001, dated 2005).

For one data set, the system named is Escherichia coli. Description: in vitro antibacterial evaluation, MIC by broth dilution. In kind it is cell-based. Particulars: 18 hours at 35° C. An outline of the steps:
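Broth dilution in Muller-Hinton II medium per NCCLS standard M7-A2, with an inoculum of 5×10^5 CFU/mL and antibiotic tested over 64-0.06 μg/mL. MIC was taken as the lowest concentration inhibiting visible growth.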

The subject of data set [1] is Staphylococcus aureus-SMITH (GC 4543). Description: acute lethal infection in mice. In kind it is in vivo. Particulars: acute lethal infection, female CD-1 mice, intraperitoneal challenge, intravenous 30 min. after infection, 7 day survival. On the procedure:
Methods for in Vivo Antibacterial Evaluation
The therapeutic effects of glycopeptide antibiotics of Formula I are determined against acute lethal infections with S. aureus (strain Smith), a penicillin resistant strain of S. pneumoniae (strain GC 1894), and a vancomycin resistant strain of E. fecalis (strain GC 6189 and GC 2246). Female mice, CD-1 (Charles River Laboratories), 20+/−2 gm, are challenged by intraperitoneal injection of sufficient bacteria (suspended in /trypticase Soy Broth or hog gastric mucin) to kill non-treated controls within 24-48 hr. Antibacterial agents, contained in 0.2 mL of saline or 5% dextrose solution, are administered intravenously 30 min. after infection. Five mice are treated at each dose level. The 7 day survival ratios from 3 separate tests are pooled for calculation of median effective dose (ED50).

The next data set has as its system Staphylococcus sp. Description: in vitro antibacterial evaluation, MIC by broth dilution. The format is cell-based. An outline of the steps: (§1)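 Broth dilution per NCCLS standard M7-A2 in Muller-Hinton II […], with an inoculum of 5×10^5 CFU/mL and antibiotic spanning 64-0.06 μg/mL. The MIC is the lowest concentration that inhibits growth of the organism.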
The next data set has as its system Enterococcus sp. Described as above. The format is cell-based. Particulars: broth dilution, 18 hours at 35° C. An outline of the steps:
as §1
For orientation: Broth dilution looks for growth in wells or tubes with falling amounts of substance.

Data set [2] can be described thus: anatomic pathology (histopathology of heart and kidney) in mice. In kind it is in vivo. The following applies: CD-1 mice, 20 mg/kg intravenously daily for 9 days, necropsy day 10, microscopic histopathology. On the procedure: Samples of tissues from necropsied mice were formalin-fixed, paraffin-embedded, sectioned, stained with hematoxylin and eosin, and examined microscopically. Histopathologic findings were recorded. These findings were subjectively graded on a scale corresponding to slight, mild, moderate, marked and severe as compared to untreated controls.

In the next data set the test system is Streptococcus sp. The data set is described as follows: in vitro antibacterial evaluation, MIC by broth dilution. The format is cell-based. Particulars: broth dilution, 18 hours at 35° C. The procedure, abridged:
as §1

Where [3] appears, read: broth dilution, 18 hours at 35° C.
[4] abbreviates: strain ATCC 29213; broth dilution, 18 hours at 35° C.
The mark [5] stands for this setting: strain GC 1131; broth dilution, 18 hours at 35° C.
The mark [6] stands for this setting: strain GC 4535; broth dilution, 18 hours at 35° C.
Setting [7] is: strain GC 4536; broth dilution, 18 hours at 35° C.
[8] abbreviates: Enterococcus faecalis (ATCC 29212).
Setting [9] is: Enterococcus faecalis (GC 4552).

Structures are written as SMILES. Values after ≈ are worked out from the molar mass of the structure shown. Where only a bound is given, the exact number is not on record here.

Consider `CCCCCCC(=O)OCC1OC(OC2C(CO)OC(Oc3ccc(CC4NC(=O)C(C(C)c5ccccc5)NC(=O)CNC(=O)C(CO)NC(=O)C(C(O)C5CNC(=N)N5C5OC(CO)C(O)C(O)C5O)NC(=O)C(C(O)C5CNC(=N)N5)NC4=O)cc3)C(O)C2O)C(O)C(O)C1O` (stereo not drawn) [Example 97b, Cyclo[glycyl-β-methylphenylalanyl-O-[4-O-(6-O-heptanoylhexopyranosyl)hexopyranosyl]-tyrosyl-3-(2-iminoimidazolidin-4-yl)seryl-3-(3-hexopyranosyl-2-iminoimidazolidin-4-yl)-serylseryl]], for which the “MIC Escherichia coli (GC 4559)” value in the data set on Escherichia coli was found to be 32 µg/mL (≈ 22.7 µM). Also, the “MIC Escherichia coli (GC 4560)” value against Escherichia coli was 1 µg/mL (≈ 0.711 µM). Moreover, the median effective dose (ED50), Staphylococcus aureus-SMITH (GC 4543) in data set [1] was 8 mg/kg. Besides, the “MIC Coagulase Negative Staphylococcus (GC 4537)” value in the data set with Staphylococcus sp. (setting [3]) was 1 µg/mL (≈ 0.711 µM); in the data set with Staphylococcus sp. (broth dilution, 18 hours at 35° C.; strain GC 4537), 1 µg/mL (≈ 0.711 µM). Further, the “MIC Coagulase Negative Staphylococcus (GC 4538)” value was 1 µg/mL (≈ 0.711 µM) against Staphylococcus sp. (setting [3]) and 1 µg/mL (≈ 0.711 µM) against Staphylococcus sp. (broth dilution, 18 hours at 35° C.; strain GC 4538). Besides, the “MIC Coagulase Negative Staphylococcus (GC 4547)” value against Staphylococcus sp. (setting [3]) was found to be 1 µg/mL (≈ 0.711 µM); with Staphylococcus sp. (broth dilution, 18 hours at 35° C.; strain GC 4547) it was 1 µg/mL (≈ 0.711 µM). Moreover, the “MIC Staphylococcus aureus (ATCC 29213)” value with Staphylococcus sp. (setting [4]) worked out at 1 µg/mL (≈ 0.711 µM). Also, the “MIC Staphylococcus aureus (GC 1131)” value in the data set on Staphylococcus sp. (setting [5]) stood at 1 µg/mL (≈ 0.711 µM). Besides, in the data set with Staphylococcus sp. (setting [6]), the “MIC Staphylococcus aureus (GC 4535)” value came to 1 µg/mL (≈ 0.711 µM). The “MIC Staphylococcus aureus-SMITH (GC 4536)” value with Staphylococcus sp. (setting [7]) was found to be 0.5 µg/mL (≈ 0.355 µM). Moreover, the “MIC Enterococcus faecalis (ATCC 29212)” value against Enterococcus sp. (setting [8]) and against Enterococcus sp. was 4 µg/mL (≈ 2.84 µM) in each case. The “MIC Enterococcus faecalis (GC 2242)” value against Enterococcus sp. (Enterococcus faecalis (GC 2242)) and in the data set with Enterococcus sp. was 2 µg/mL (≈ 1.42 µM) each time. In addition, the “MIC Enterococcus faecalis (GC 4552)” value against Enterococcus sp. (setting [9]) and in the data set on Enterococcus sp. was 4 µg/mL (≈ 2.84 µM) in each case.
Regarding `CCCCCC(=O)OCC1OC(OC2C(CO)OC(Oc3ccc(CC4NC(=O)C(C(C)c5ccccc5)NC(=O)CNC(=O)C(CO)NC(=O)C(C(O)C5CNC(=N)N5C5OC(CO)C(O)C(O)C5O)NC(=O)C(C(O)C5CNC(=N)N5)NC4=O)cc3)C(O)C2O)C(O)C(O)C1O` (stereo not drawn) [Example 95b, Cyclo[glycyl-β-methylphenylalanyl-O-[4-O-(6-O-hexanoylhexopyranosyl)hexopyranosyl]-tyrosyl-3-(2-iminoimidazolidin-4-yl)seryl-3-(3-hexopyranosyl-2-iminoimidazolidin-4-yl)-serylseryl]], the “MIC Escherichia coli (GC 4559)” value against Escherichia coli stood at 64 µg/mL (≈ 45.9 µM). Moreover, the “MIC Escherichia coli (GC 4560)” value in the data set with Escherichia coli is below 0.5 µg/mL. For the same molecule, in data set [1], the median effective dose (ED50), Staphylococcus aureus-SMITH (GC 4543) came to 4 mg/kg. The “MIC Coagulase Negative Staphylococcus (GC 4537)” value turned out to be 2 µg/mL (≈ 1.44 µM) in the data set with Staphylococcus sp. (setting [3]) and 2 µg/mL (≈ 1.44 µM) against Staphylococcus sp. (strain GC 4537; broth dilution, 18 hours at 35° C.). In addition, the “MIC Coagulase Negative Staphylococcus (GC 4538)” value in the data set with Staphylococcus sp. (setting [3]) amounted to 1 µg/mL (≈ 0.718 µM); against Staphylococcus sp. (strain GC 4538; broth dilution, 18 hours at 35° C.), 1 µg/mL (≈ 0.718 µM). Further, the “MIC Coagulase Negative Staphylococcus (GC 4547)” value in the data set with Staphylococcus sp. (setting [3]) is 1 µg/mL (≈ 0.718 µM); with Staphylococcus sp. (strain GC 4547; broth dilution, 18 hours at 35° C.), 1 µg/mL (≈ 0.718 µM). Moreover, the “MIC Staphylococcus aureus (ATCC 29213)” value against Staphylococcus sp. (setting [4]) is 1 µg/mL (≈ 0.718 µM). For the same molecule, the “MIC Staphylococcus aureus (GC 1131)” value against Staphylococcus sp. (setting [5]) turned out to be 1 µg/mL (≈ 0.718 µM). The “MIC Staphylococcus aureus (GC 4535)” value in the data set with Staphylococcus sp. (setting [6]) turned out to be 2 µg/mL (≈ 1.44 µM). Moreover, in the data set on Staphylococcus sp. (setting [7]), the “MIC Staphylococcus aureus-SMITH (GC 4536)” value is 1 µg/mL (≈ 0.718 µM). In addition, the “MIC Enterococcus faecalis (ATCC 29212)” value in the data set on Enterococcus sp. (setting [8]) and against Enterococcus sp. was 4 µg/mL (≈ 2.87 µM) each time. Also, the “MIC Enterococcus faecalis (GC 4552)” value against Enterococcus sp. (setting [9]) and against Enterococcus sp. was 8 µg/mL (≈ 5.74 µM) each time. Also, the “MIC Enterococcus faecalis (GC 2242)” value with Enterococcus sp. and against Enterococcus sp. (strain GC 2242) was 8 µg/mL (≈ 5.74 µM) throughout.
For `CC(c1ccccc1)C1NC(=O)CNC(=O)C(CO)NC(=O)C(C(O)C2CN(Cc3ccc(-c4ccccc4)cc3)C(=N)N2C2OC(CO)C(O)C(O)C2O)NC(=O)C(C(O)C2CNC(=NCc3ccc(-c4ccccc4)cc3)N2Cc2ccc(-c3ccccc3)cc2)NC(=O)C(Cc2ccc(OC3OC(CO)C(OC4OC(CO)C(O)C(O)C4O)C(O)C3O)cc2)NC1=O` (stereo not drawn) [Example 66, Cyclo[glycyl-β-methylphenylalanyl-O-(4-O-hexopyranosylhexopyranosyl)tyrosl-3-[3-(4-phenylbenzyl)-2-(4-phenylbenzyl)iminolimidazolidin-4-yl]seryl-3-[3-hexopyranosyl-2-imino-1-(4-phenylbenzyl)-imidazolidin-4-yl]serylseryl]], in data set [2], the “Anatomical Pathology (Day 10), Heart” value is listed as 0 and the “Anatomical Pathology (Day 10), Kidney” value is 0. For the same molecule, in the data set with Escherichia coli, the “MIC Escherichia coli (ATCC 25922)” value is above 128 µg/mL, the “MIC Escherichia coli (GC 4559)” value was above 128 µg/mL and the “MIC Escherichia coli (GC 4560)” value was found to be 4 µg/mL (≈ 2.23 µM). For the same molecule, in the data set with Streptococcus sp., the “MIC Streptococcus agalactiae (GC 4564)” value was found to be 32 µg/mL (≈ 17.8 µM), the “MIC Streptococcus pneumoniae (ATCC 6301)” value came out at 32 µg/mL (≈ 17.8 µM), the “MIC Streptococcus pneumoniae (GC 1894)” value is 32 µg/mL (≈ 17.8 µM) and the “MIC Streptococcus pneumoniae (GC 4565)” value turned out to be 64 µg/mL (≈ 35.7 µM). The “MIC Streptococcus pyogenes (GC 4563)” value with Streptococcus sp. turned out to be 16 µg/mL (≈ 8.92 µM). In addition, the “MIC Streptococcus pneumoniae (ATCC 6301)” value with Streptococcus sp. (strain ATCC 6301) came to 32 µg/mL (≈ 17.8 µM). For the same molecule, in the data set on Streptococcus sp. (strain GC 1894), the “MIC Streptococcus pneumoniae (GC 1894)” value is 32 µg/mL (≈ 17.8 µM). Further, in the data set with Streptococcus sp. (strain GC 4563), the “MIC Streptococcus pyogenes (GC 4563)” value stood at 16 µg/mL (≈ 8.92 µM). Moreover, the “MIC Streptococcus agalactiae (GC 4564)” value against Streptococcus sp. (strain GC 4564) was found to be 32 µg/mL (≈ 17.8 µM). Also, the “MIC Streptococcus pneumoniae (GC 4565)” value in the data set with Streptococcus sp. (strain GC 4565) worked out at 64 µg/mL (≈ 35.7 µM). The “MIC Staphylococcus aureus-SMITH (GC 4543)” value in the data set on Staphylococcus sp. (strain GC 4543; broth dilution, 18 hours at 35° C.) was 8 µg/mL (≈ 4.46 µM). The “MIC Staphylococcus haemolyticus (GC 4546)” value with Staphylococcus sp. (strain GC 4546; broth dilution, 18 hours at 35° C.) is 4 µg/mL (≈ 2.23 µM). In the data set on Enterococcus sp., the “MIC Enterococcus avium (GC 4558)” value was found to be 4 µg/mL (≈ 2.23 µM), the “MIC Enterococcus faecalis (ATCC 29212)” value worked out at 16 µg/mL (≈ 8.92 µM), the “MIC Enterococcus faecalis (GC 2242)” value is 16 µg/mL (≈ 8.92 µM) and the “MIC Enterococcus faecalis (GC 2691)” value was determined as 32 µg/mL (≈ 17.8 µM). Further, in the data set with Enterococcus sp., the “MIC Enterococcus faecalis (GC 3059)” value is 32 µg/mL (≈ 17.8 µM), the “MIC Enterococcus faecalis (GC 4552)” value was 32 µg/mL (≈ 17.8 µM), the “MIC Enterococcus faecalis (GC 4553)” value is 8 µg/mL (≈ 4.46 µM) and the “MIC Enterococcus faecalis (GC 4554)” value was 64 µg/mL (≈ 35.7 µM). In the data set on Enterococcus sp., the “MIC Enterococcus faecalis (GC 6189)” value is 32 µg/mL (≈ 17.8 µM), the “MIC Enterococcus faecium (GC 2243)” value is 8 µg/mL (≈ 4.46 µM), the “MIC Enterococcus faecium (GC 4556)” value came to 32 µg/mL (≈ 17.8 µM) and the “MIC Enterococcus faecium (GC 4557)” value came to 4 µg/mL (≈ 2.23 µM). In addition, the “MIC Enterococcus faecalis (GC 2242)” value against Enterococcus sp. (strain GC 2242) turned out to be 16 µg/mL (≈ 8.92 µM). The “MIC Enterococcus faecalis (GC 2691)” value in the data set with Enterococcus sp. (strain GC 2691) came out at 32 µg/mL (≈ 17.8 µM). The “MIC Enterococcus faecalis (GC 3059)” value against Enterococcus sp. (strain GC 3059) was found to be 32 µg/mL (≈ 17.8 µM).
